Source: ChEMBL document CHEMBL4665629, “An optimised series of substituted N-phenylpyrrolamides as DNA gyrase B inhibitors” (Eur J Med Chem, 2019)
In brackets after ≈: the same amount, converted by molar mass.

Key:
Format in all cases: functional
[1] = tested on: Escherichia coli; assay: Antibacterial activity against Escherichia coli MG1655 harboring […]/D87N and ParC S80I mutants assessed as minimum inhibitory concentration required for >=90% inhibition of bacterial growth in presence of 50 ug/ml phenylalanine-arginine beta-naphthylamide
[2] = tested on: Klebsiella pneumoniae; assay: Antibacterial activity against wild type Klebsiella pneumoniae ATCC 10031 assessed as minimum inhibitory concentration required for >=90% inhibition of bacterial growth in presence of 10 ug/ml phenylalanine-arginine beta-naphthamide
[3] = tested on: Acinetobacter baumannii; assay: Antibacterial activity against Acinetobacter baumannii ATCC 19606 assessed as bacterial growth inhibition at 50 uM incubated for 24 hrs by CLSI protocol based broth microdilution assay relative to control; settings: ATCC 19606 = CIP 70.34 = JCM 6841
[4] = tested on: Enterococcus faecalis; assay: Antibacterial activity against Enterococcus faecalis ATCC 29212 assessed as minimum inhibitory concentration required for >=90% inhibition of bacterial growth by CLSI protocol based broth microdilution assay
[5] = tested on: Streptococcus pyogenes; assay: Antibacterial activity against Streptococcus pyogenes ATCC 19653 assessed as minimum inhibitory concentration required for >=90% inhibition of bacterial growth by CLSI protocol based broth microdilution assay
[6] = tested on: Klebsiella pneumoniae; assay: Antibacterial activity against Klebsiella pneumoniae ATCC 700603 assessed as bacterial growth inhibition at 50 uM incubated for 24 hrs by CLSI protocol based broth microdilution assay relative to control
[7] = tested on: Klebsiella pneumoniae; assay: Antibacterial activity against wild type Klebsiella pneumoniae ATCC 10031 harboring GyrA S83F/D87G and ParC S80I mutants assessed as minimum inhibitory concentration required for >=90% inhibition of bacterial growth in presence of 10 ug/ml phenylalanine-arginine beta-naphthamide
[8] = tested on: Klebsiella pneumoniae; assay: Antibacterial activity against wild type Klebsiella pneumoniae ATCC 10031 harboring GyrA S83F mutant assessed as minimum inhibitory concentration required for >=90% inhibition of bacterial growth in presence of 10 ug/ml phenylalanine-arginine beta-naphthamide
[9] = tested on: Shigella flexneri; assay: Antibacterial activity against Shigella flexneri HNCMB 20018 assessed as minimum inhibitory concentration required for >=90% inhibition of bacterial growth in presence of phenylalanine-arginine beta-naphthylamide by CLSI protocol based broth microdilution assay
[10] = tested on: Staphylococcus aureus; assay: Antibacterial activity against methicillin-resistant Staphylococcus aureus ATCC 43300 assessed as minimum inhibitory concentration required for >=90% inhibition of bacterial growth in presence of 50% inactivated human serum by CLSI protocol based broth microdilution assay
[11] = tested on: Escherichia coli; assay: Antibacterial activity against Escherichia coli MG1655 harboring GyrB R136C mutant assessed as minimum inhibitory concentration required for >=90% inhibition of bacterial growth in presence of 50 ug/ml phenylalanine-arginine beta-naphthylamide
[12] = tested on: Klebsiella aerogenes; assay: Antibacterial activity against Enterobacter aerogenes ATCC 13408 assessed as bacterial growth inhibition at 50 uM incubated for 24 hrs by CLSI protocol based broth microdilution assay relative to control
[13] = tested on: Staphylococcus aureus; assay: Antibacterial activity against […] Staphylococcus aureus ATCC 25923 assessed as minimum inhibitory concentration required for >=90% inhibition of bacterial growth by CLSI protocol based broth microdilution assay
[14] = tested on: Klebsiella pneumoniae; assay: Antibacterial activity against Klebsiella pneumoniae ATCC 10031 assessed as minimum inhibitory concentration required for >=90% inhibition of bacterial growth in presence of phenylalanine-arginine beta-naphthylamide by CLSI protocol based broth microdilution assay

## CCn1cc(C(=O)O)c(=O)c2ccc(NC(=O)c3[nH]c(C)c(Cl)c3Cl)cc21
[1]
  MIC: 2.5 µM
[2]
  MIC: 1.2 µM
[3]
  inhibition at 50 µM: 2%
[4]
  MIC: 1.56 µM (≈ 0.637 µg/mL)
[5]
  MIC: 0.72 µM (≈ 0.294 µg/mL)
[6]
  inhibition at 50 µM: 7%
[7]
  MIC: 1.2 µM
[8]
  MIC: 1.2 µM
[9]
  MIC: > 32 µM
[10]
  MIC: 32 µM
[11]
  MIC: 2.5 µM
[12]
  inhibition at 50 µM: 9%
[13]
  MIC: 2.5 µM (≈ 1.02 µg/mL)
[14]
  MIC: > 32 µM
